Laboratory results reported in patent publication US20240140953A1, “INHIBITORS OF MENIN-MLL INTERACTION” (BIOMEA FUSION, INC., priority 2018, published 2024).
Entries after “also recorded” stand apart in the source; their conditions may differ. Read-outs that look alike come from different tables or passages of the source.

Experiments:
HL-60 = experiment: Proliferation study, CellTiterGlo, 4 days (Example 102), HL-60; type: cell-based; details: HL-60, 4 days treatment; for HL-60 % max: maximal inhibition; for IC50: Homo sapiens, 96 h, CellTiterGlo
From the text: (§1) The objective of the study was to evaluate the ability of representative compounds of the present invention, inhibitors of Menin/MLL interaction to inhibit cell proliferation. The proliferation inhibitory effect was investigated in two human MLL-leukemia cells selected on the bases of MLL fusion protein and listed in Table 102. HL-60 cell line was used as negative control.
(§2) ATP is present in all metabolically active cells and is considered as a marker for cell viability and proliferation. The metabolic cell activity was determined using the CellTiter-Glo kit from Promega, an ATP monitoring system based on the production of luminescence by the reaction of ATP with added UltraGlo® recombinant luciferase (Kawano et al., 2016), according to the supplier's experimental recommendations.
(§3) The described assay evaluates the ability of 4 representative compounds to inhibit the cell proliferation in the human MLL-leukemia cells plus a negative control cell line.
(§4) The assay provides potency values (IC50) for each test compound at a single time point Day 4 (T4).
(§5) Seven concentrations of the compounds (2.00E-05-6.67E-06-2.22E-06-7.41E-07-2.47E-07-8.23E-08-2.74E-08M), were assessed in duplicate in an individual test occasion in all the cell lines. MI-503 (Borkin et al., 2015) was used as reference compound and was tested at the same concentrations as the NCEs. 100% of proliferation is represented by the untreated cells (0.2% DMSO). The cell growth was monitored up to 4 days in culture.
(§6) MV4-11, MOLM-13 and HL-60 cells (see Table 2) were maintained in RPMI-1640 medium (Invitrogen, Cat. n. 618700, Batch n. 1965930) supplemented with 10% of Heat Inactivated FBS (Invitrogen, Cat n. 10500, Batch n. 08Q8078K) and 1% Pen-Strep (Invitrogen, Cat. N. 15140, Batch n. 1910859) and cultured at 37° C. in a humidified incubator with 5% CO2. All the cell lines grow in suspension and the cell density was maintained in a range of 2×10^5-1×10^6 viable cells/ml. Cells were pelleted at 130 g×5 min and conditioned medium was used to dilute the cell suspension.
(§7) Test items were dissolved in glass vials at 10 mM in DMSO with purity ≥99.9% (Sigma, D8418, batch n. SHBH4245V) and stored at −20° C. in 1.5 mL Eppendorf tubes.
(§8) Serial dilutions 1 to 3 in DMSO 100% were prepared starting from a 10 mM stock solutions to generate 7 points concentration response curve (CRC).
(§9) For each plate to test, one 0.4 μL copy plate and four 0.3 μL copy plates were then stamped into 96-well plates not treated for cell adhesion (Sarstedt—cat.no. 82.1581.001) by acoustic liquid Handling, Echo, at a concentration which was 500 fold the final assay concentration. Stamped plates were stored at −20° C. The final concentrations for the reference compound, MI-503, and the test items were: 2.00E-05, 6.67E-06, 2.22E-06, 7.41E-07, 2.47E-07, 8.23E-08 and 2.74E-08 M.
(§10) Cells were plated in 96-well flat bottom microtiter plates at cell density of 15,000 cells/ml for HL-60, 1000 cells/ml for MOLM-13 and 10,000 cell/ml for MV4-11. Cells were treated with 0.2% DMSO (Sigma, D8418, batch n. SHBH4245V) or serial dilutions of compounds (0.027 μM-20 μM) in DMSO (0.2% final concentration). Cells were incubated in a 5% CO2 incubator at 37° C. for 4 days. A CellTiterGlo viability assay (Promega) was employed. Luminescence was read by using VictorV (Perkin Elmer) multilabel plate reader using the standard protocol for luminescence in 96 well plate. The experiment was performed in duplicate.
(§11) Data were expressed as % of inhibition compared to the 0.2% DMSO negative control, and was calculated as follows: […]
(§12) CRCs were analysed by GraphPad and IC50 values were calculated by non-linear regression using 4 parameter-logistic equation. IC50 (μM) values were reported in the final data table. The curve fittings were performed leaving free all the parameters. Any constrain were reported in the results table.

MV4-11 (MLL-AF4) = experiment: Proliferation study, CellTiterGlo, 4 days (Example 102), MV4-11; type: cell-based, human; details: MV4-11, 4 days treatment; for IC50: CellTiterGlo; for MV4-11 (MLL-AF4) % max: maximal inhibition
From the text: as §1, §2, §3, §4, §5, §6, §7, §8, §9, §10, §11, §12

[1] = read-out: HL-60 pIC50 (converted)
[2] = Homo sapiens, MV4-11, 96 h, read-out: MV4-11 (MLL-AF4) IC50
[3] = Homo sapiens, MV4-11, 96 h, read-out: MV4-11 (MLL-AF4) pIC50 (converted)

Row | Structure (SMILES) | HL-60 % max (HL-60) [%] | IC50 (HL-60; read-out: HL-60 IC50) [µM] | IC50 (HL-60; [1]) [µM] | IC50 (MV4-11 (MLL-AF4); [2]) [µM] | IC50 (MV4-11 (MLL-AF4); [3]) [µM] | IC50 (MV4-11 (MLL-AF4); read-out: MV4-11 (MLL-AF4) IC50) [µM] | MV4-11 (MLL-AF4) % max (MV4-11 (MLL-AF4)) [%] | inhibition of cell viability (in words) (HL-60; up to 20 μM) | inhibition of cell viability (in words) (MV4-11 (MLL-AF4); up to 20 μM)
1 | Cn1nc(-c2cccnc2)cc1CC(=O)Nc1ccc(-c2cc3c(N4CCOCC4)ncnc3[nH]2)cc1 [Compound 11, 2-[1-methyl-3-(pyridin-3-yl)-1H-pyrazol-5-yl]-N-{4-[4-(morpholin-4-yl)-7H-pyrrolo[2,3-d]pyrimidin-6-yl]phenyl}acetamide] | 102 | 0.51 | 0.513 | 0.2 | 0.282 | 0.28 | 100 | – | –
2 | O=C(Cc1cc(-c2cccnc2)n[nH]1)Nc1ccc(-c2nc3c(N4CCOCC4)ncnc3[nH]2)cc1 [Compound 12, N-{4-[6-(morpholin-4-yl)-9H-purin-8-yl]phenyl}-2-[3-(pyridin-3-yl)-1H-pyrazol-5-yl]acetamide] | – | > 20 | > 20 | 0.43 | 0.427 | – | 89 | not active up to the highest concentration tested; also recorded: completely inactive up to the highest concentration tested | fully inhibited
3 | O=C(Nc1ccc(-c2cc3c(N4CCOCC4)ncnc3[nH]2)cc1)Nc1cc(-c2cccnc2)n[nH]1 [Compound 9, 1-{4-[4-(morpholin-4-yl)-7H-pyrrolo[2,3-d]pyrimidin-6-yl]phenyl}-3-[3-(pyridin-3-yl)-1H-pyrazol-5-yl]urea] | 69 | 0.32 | 0.316 | 0.49 | 0.49 | – | 102 | – | –
